Broadly, the Emax is the size of the effect at its maximum, as opposed to the concentration needed.

The results in this text go back to patent US20260176320A1, “MODULATORS OF G-PROTEIN COUPLED RECEPTORS” (priority 2018, published 2026).

Common to all, as to format: cell-based
The target of test [1] is T1, GLP-1R (Homo sapiens, UniProt P43220). The test can be described thus: HitHunter cAMP assay (GLP-1R). The following applies: cAMP; for Emax: read-out: (Emax) GLP-1R. In short, it runs like this:
(§1)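 cAMP accumulation read by luminescent HitHunter immunocompetition after 30 min room-temperature agonist stimulation. Agonists tested as 22-point twofold dilutions, in duplicate, on 10,000 cells/well in HBSS containing 625 μM IBMX, 10 mM HEPES and 0.2% BSA.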
(Cyclic AMP is a second messenger, typically raised through Gs and lowered through Gi signalling.)

Test [2] deals with T1, GLP-1R. The test can be described thus: PathHunter β-arrestin assay. In short, it runs like this: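 β-Arrestin recruitment measured by PathHunter enzyme-fragment luminescence, read after 3 h dark incubation at room temperature with detection solution. Beforehand, agonist in a 22-point 2-fold series was applied in duplicate for 90 min at 37 °C to 5,000 cells/well in BSA-containing (0.2%) medium.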

Another test addresses T2, GIP-R (Homo sapiens, UniProt P48546).
T2 sequence (P48546 22-466): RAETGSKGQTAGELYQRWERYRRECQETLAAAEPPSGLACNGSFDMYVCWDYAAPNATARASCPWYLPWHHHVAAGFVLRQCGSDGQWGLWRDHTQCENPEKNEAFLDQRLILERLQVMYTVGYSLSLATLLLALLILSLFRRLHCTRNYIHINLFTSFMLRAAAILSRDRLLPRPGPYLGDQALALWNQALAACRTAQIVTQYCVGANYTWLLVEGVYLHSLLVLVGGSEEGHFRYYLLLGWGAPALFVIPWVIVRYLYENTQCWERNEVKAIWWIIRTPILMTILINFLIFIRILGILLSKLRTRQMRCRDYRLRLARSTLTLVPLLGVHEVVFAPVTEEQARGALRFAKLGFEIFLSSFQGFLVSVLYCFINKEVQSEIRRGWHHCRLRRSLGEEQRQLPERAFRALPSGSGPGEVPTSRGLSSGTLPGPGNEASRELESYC
In words: HitHunter cAMP assay (GIP-R). Particulars: cAMP; for Emax: read-out: (Emax) GIP-R. In short, it runs like this:
as §1

The mark [3] stands for this setting: Table 3, read-out: EC50 GLP-1R/nM.
[4] abbreviates: Table 3A, read-out: EC50 GLP-1R/nM.
Where [5] appears, read: PathHunter β-arrestin assay, read-out: β-arrestin activity EC50.
The mark [6] stands for this setting: Table 3, read-out: EC50 GIP-R/nM.
Where [7] appears, read: Table 3A, read-out: EC50 GIP-R/nM.

Where two headings read alike, the source gives them in different places. Bounds are passed on as bounds.

T1 sequence (P43220 24-463): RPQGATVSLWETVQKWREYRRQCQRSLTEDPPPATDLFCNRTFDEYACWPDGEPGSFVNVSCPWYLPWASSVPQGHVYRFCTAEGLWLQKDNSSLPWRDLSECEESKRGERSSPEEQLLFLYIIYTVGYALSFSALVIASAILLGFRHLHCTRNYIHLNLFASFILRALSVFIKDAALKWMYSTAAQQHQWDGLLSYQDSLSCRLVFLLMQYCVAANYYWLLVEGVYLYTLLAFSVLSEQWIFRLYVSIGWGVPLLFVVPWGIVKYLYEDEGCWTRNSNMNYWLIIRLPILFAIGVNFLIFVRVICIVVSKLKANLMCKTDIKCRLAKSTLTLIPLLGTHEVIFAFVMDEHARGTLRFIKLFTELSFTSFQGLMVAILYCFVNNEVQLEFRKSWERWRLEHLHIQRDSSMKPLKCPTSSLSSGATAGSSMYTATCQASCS

For `CCCCCCCCCCCCCCCC(=O)N[C@@H](CCC(=O)NCCCC[C@H](NC(=O)[C@H](CO)NC(=O)[C@@H]1CCCN1C(=O)[C@@H]1CCCN1C(=O)[C@@H]1CCCN1C(=O)[C@H](C)NC(=O)CNC(=O)[C@H](CO)NC(=O)[C@H](CO)NC(=O)[C@@H]1CCCN1C(=O)CNC(=O)CNC(=O)[C@H](C)NC(=O)[C@H](CC(C)C)NC(=O)[C@H](CC(C)C)NC(=O)[C@H](Cc1c[nH]c2ccccc12)NC(=O)[C@H](CC(N)=O)NC(=O)[C@@H](NC(=O)[C@H](Cc1ccccc1)NC(=O)[C@H](CCC(=O)O)NC(=O)C(C)(C)NC(=O)[C@H](C)NC(=O)[C@H](C)NC(=O)[C@H](CCC(N)=O)NC(=O)[C@H](CCCCN)NC(=O)[C@H](CC(=O)O)NC(=O)[C@H](CC(C)C)NC(=O)[C@H](Cc1ccc(O)cc1)NC(=O)[C@@H](NC(=O)[C@H](CO)NC(=O)[C@H](Cc1ccc(O)cc1)NC(=O)[C@H](CC(=O)O)NC(=O)[C@H](CO)NC(=O)[C@@H](NC(=O)[C@H](Cc1ccccc1)NC(=O)[C@@H](NC(=O)CNC(=O)[C@H](CCC(=O)O)NC(=O)CSCC(=O)NCCN1CCCNC1=O)[C@@H](C)O)[C@@H](C)O)[C@@H](C)CC)C(C)C)C(N)=O)C(=O)O` [Compound 31], the maximum response (Emax) at GLP-1R [1] (Table 3) worked out at 102%; at GLP-1R [1] (Table 3A), 102%; at GIP-R (Table 3) it was 37%; at GIP-R (Table 3A), 37%. Further, the EC50 on GLP-1R [1] (setting [3]) is 1 to 10 nM; on GLP-1R [1] (setting [4]), 1 to 10 nM; on GLP-1R [2] (setting [5]) it was greater than 1000 nM; on GIP-R (setting [6]) it was 10 to 100 nM; at GIP-R (setting [7]), 10 to 100 nM.
Consider `CC[C@H](C)[C@H](NC(=O)[C@H](CO)NC(=O)[C@H](Cc1ccc(O)cc1)NC(=O)[C@H](CC(=O)O)NC(=O)[C@H](CO)NC(=O)[C@@H](NC(=O)[C@H](Cc1ccccc1)NC(=O)[C@@H](NC(=O)CNC(=O)[C@H](CCC(=O)O)NC(=O)C1(C(=O)NCCN2C(=O)CSC2=O)CC1)[C@@H](C)O)[C@@H](C)O)C(=O)N[C@@H](Cc1ccc(O)cc1)C(=O)N[C@@H](CC(C)C)C(=O)N[C@@H](CC(=O)O)C(=O)N[C@@H](CCCCN)C(=O)N[C@@H](CCC(N)=O)C(=O)N[C@@H](C)C(=O)N[C@@H](C)C(=O)NC(C)(C)C(=O)N[C@@H](CCC(=O)O)C(=O)N[C@@H](Cc1ccccc1)C(=O)N[C@H](C(=O)N[C@@H](CC(N)=O)C(=O)N[C@@H](Cc1c[nH]c2ccccc12)C(=O)N[C@@H](CC(C)C)C(=O)N[C@@H](CC(C)C)C(=O)N[C@@H](C)C(=O)NCC(=O)NCC(=O)N1CCC[C@H]1C(=O)N[C@@H](CO)C(=O)N[C@@H](CO)C(=O)NCC(=O)N[C@@H](C)C(=O)N1CCC[C@H]1C(=O)N1CCC[C@H]1C(=O)N1CCC[C@H]1C(=O)N[C@@H](CO)C(=O)N[C@@H](CCCCN)C(N)=O)C(C)C` [Compound 135], for which the Emax at GLP-1R [1] (Table 3) was in the range of 106 to 111%; at GLP-1R [1] (Table 3A) it was 106 to 111%; on GIP-R (Table 3), 15 to 22%; at GIP-R (Table 3A), 15 to 22%. Further, the EC50 is less than 1 nM on GLP-1R [1] (setting [3]); less than 1 nM on GLP-1R [1] (setting [4]); greater than 1000 nM at GLP-1R [2] (setting [5]); 10 to 100 nM on GIP-R (setting [6]); 10 to 1000 nM on GIP-R (setting [7]).
In the case of `CCCCCCCCCCCCCCCC(=O)N[C@@H](CCC(=O)NCCCC[C@H](NC(=O)[C@H](CO)NC(=O)[C@@H]1CCCN1C(=O)[C@@H]1CCCN1C(=O)[C@@H]1CCCN1C(=O)[C@H](C)NC(=O)CNC(=O)[C@H](CO)NC(=O)[C@H](CO)NC(=O)[C@@H]1CCCN1C(=O)CNC(=O)CNC(=O)[C@H](C)NC(=O)[C@H](CC(C)C)NC(=O)[C@H](CC(C)C)NC(=O)[C@H](Cc1c[nH]c2ccccc12)NC(=O)[C@H](CC(N)=O)NC(=O)[C@@H](NC(=O)[C@H](Cc1ccccc1)NC(=O)[C@H](CCC(=O)O)NC(=O)C(C)(C)NC(=O)[C@H](C)NC(=O)[C@H](C)NC(=O)[C@H](CCC(N)=O)NC(=O)[C@H](CCCCN)NC(=O)[C@H](CC(=O)O)NC(=O)[C@H](CC(C)C)NC(=O)[C@H](Cc1ccc(O)cc1)NC(=O)[C@@H](NC(=O)[C@H](CO)NC(=O)[C@H](Cc1ccc(O)cc1)NC(=O)[C@H](CC(=O)O)NC(=O)[C@H](CO)NC(=O)[C@@H](NC(=O)[C@H](Cc1ccccc1)NC(=O)[C@@H](NC(=O)CNC(=O)[C@H](CCC(=O)O)NC(=O)CSCC(=O)NCCN1CCCC(C)(C)C1=O)[C@@H](C)O)[C@@H](C)O)[C@@H](C)CC)C(C)C)C(N)=O)C(=O)O` [Compound 10], the EC50 was 0.1 to 1 nM at GLP-1R [1] (EC50 GLP-1R/nM, Table 3); 0.1 to 1 nM at GLP-1R [1] (EC50 GLP-1R/nM, Table 3A); greater than 1000 nM on GLP-1R [2]; 1 to 10 nM at GIP-R (EC50 GIP-R/nM, Table 3); 1 to 10 nM on GIP-R (EC50 GIP-R/nM, Table 3A). For the same compound, the Emax at GLP-1R [1] (Table 3) worked out at 95%; at GLP-1R [1] (Table 3A) it was 95%; on GIP-R (Table 3) it was 32%; at GIP-R (Table 3A), 32%.
Consider `CCCCCCCCCCCCCCCC(=O)N[C@@H](CCC(=O)NCCCC[C@H](NC(=O)[C@H](CO)NC(=O)[C@@H]1CCCN1C(=O)[C@@H]1CCCN1C(=O)[C@@H]1CCCN1C(=O)[C@H](C)NC(=O)CNC(=O)[C@H](CO)NC(=O)[C@H](CO)NC(=O)[C@@H]1CCCN1C(=O)CNC(=O)CNC(=O)[C@H](C)NC(=O)[C@H](CC(C)C)NC(=O)[C@H](CC(C)C)NC(=O)[C@H](Cc1c[nH]c2ccccc12)NC(=O)[C@H](CC(N)=O)NC(=O)[C@@H](NC(=O)[C@H](Cc1ccccc1)NC(=O)[C@H](CCC(=O)O)NC(=O)C(C)(C)NC(=O)[C@H](C)NC(=O)[C@H](C)NC(=O)[C@H](CCC(N)=O)NC(=O)[C@H](CCCCN)NC(=O)[C@H](CC(=O)O)NC(=O)[C@H](CC(C)C)NC(=O)[C@H](Cc1ccc(O)cc1)NC(=O)[C@@H](NC(=O)[C@H](CO)NC(=O)[C@H](Cc1ccc(O)cc1)NC(=O)[C@H](CC(=O)O)NC(=O)[C@H](CO)NC(=O)[C@@H](NC(=O)[C@H](Cc1ccccc1)NC(=O)[C@@H](NC(=O)CNC(=O)[C@H](CCC(=O)O)NC(=O)CSCC(=O)NCCN1CC[C@H](OC)C1=O)[C@@H](C)O)[C@@H](C)O)[C@@H](C)CC)C(C)C)C(N)=O)C(=O)O` [Compound 14], for which the EC50 at GLP-1R [1] (EC50 GLP-1R/nM, Table 3) is 0.1 to 1 nM; at GLP-1R [1] (EC50 GLP-1R/nM, Table 3A), 0.1 to 1 nM; at GLP-1R [2], greater than 1000 nM; at GIP-R (EC50 GIP-R/nM, Table 3) it was 10 to 100 nM. The maximal response (Emax) on GLP-1R [1] (Table 3) is 81%; on GLP-1R [1] (Table 3A), 81%; at GIP-R (Table 3), less than 10%.
Turning to `CCCCCCCCCCCCCCCC(=O)N[C@@H](CCC(=O)NCCCC[C@H](NC(=O)[C@H](CO)NC(=O)[C@@H]1CCCN1C(=O)[C@@H]1CCCN1C(=O)[C@@H]1CCCN1C(=O)[C@H](C)NC(=O)CNC(=O)[C@H](CO)NC(=O)[C@H](CO)NC(=O)[C@@H]1CCCN1C(=O)CNC(=O)CNC(=O)[C@H](C)NC(=O)[C@H](CC(C)C)NC(=O)[C@H](CC(C)C)NC(=O)[C@H](Cc1c[nH]c2ccccc12)NC(=O)[C@H](CC(N)=O)NC(=O)[C@@H](NC(=O)[C@H](Cc1ccccc1)NC(=O)[C@H](CCC(=O)O)NC(=O)C(C)(C)NC(=O)[C@H](C)NC(=O)[C@H](C)NC(=O)[C@H](CCC(N)=O)NC(=O)[C@H](CCCCN)NC(=O)[C@H](CC(=O)O)NC(=O)[C@H](CC(C)C)NC(=O)[C@H](Cc1ccc(O)cc1)NC(=O)[C@@H](NC(=O)[C@H](CO)NC(=O)[C@H](Cc1ccc(O)cc1)NC(=O)[C@H](CC(=O)O)NC(=O)[C@H](CO)NC(=O)[C@@H](NC(=O)[C@H](Cc1ccccc1)NC(=O)[C@@H](NC(=O)CNC(=O)[C@H](CCC(=O)O)NC(=O)CSCC(=O)NCCN1CCc2ccccc2C1=O)[C@@H](C)O)[C@@H](C)O)[C@@H](C)CC)C(C)C)C(N)=O)C(=O)O` [Compound 13], the EC50 at GLP-1R [1] (EC50 GLP-1R/nM, Table 3) was 1 to 10 nM; on GLP-1R [1] (EC50 GLP-1R/nM, Table 3A) it was 1 to 10 nM; on GLP-1R [2] it was greater than 1000 nM; at GIP-R (EC50 GIP-R/nM, Table 3), 1 to 10 nM; on GIP-R (EC50 GIP-R/nM, Table 3A), 10 to 100 nM. Also, the Emax on GLP-1R [1] (Table 3) turned out to be 69%; at GLP-1R [1] (Table 3A), 69%; on GIP-R (Table 3), 25%; on GIP-R (Table 3A), 25%.
